In publication PMC7249761 (Journal of thoracic oncology : official publication of the …, 2016):

Experiments:
[1] = system: cytochrome P450 family 3 subfamily A member 4 [CYP3A4]; conditions: cited from earlier work
[2] = type: in vivo, patients; conditions: with crizotinib 150 mg twice daily; 3 plus 3 design

Structure (SMILES) | CYP3A4 inhibition [1] | maximum tolerated dose (MTD) of erlotinib in the combination [2] [mg once daily]
C[C@@H](Oc1cc(-c2cnn(C3CCNCC3)c2)cnc1N)c1c(Cl)ccc(F)c1Cl [crizotinib] | moderate cytochrome P450 family 3 subfamily A member 4 [CYP3A4] inhibitor | –
C#Cc1cccc(Nc2ncnc3cc(OCCOC)c(OCCOC)cc23)c1 [erlotinib] | – | 100
